Reference: patent publication US6472391B2, “Nitrogen-containing heterocyclic compounds” (Millennium Pharmaceuticals, Inc., priority 1996, dated 2002)

What was measured:
human β-PDGF receptor = target: T1, human β-PDGF receptor (Homo sapiens, UniProt P09619); assay: Inhibitory effect on phosphorylation of PDGF receptor; assay type: cell-based; conditions: CHO cells expressing human β-PDGF receptor
T1 construct: expressed in transfected cells; host or cells: Chinese hamster ovary cells (CHO)
Method: Test Example 1 Inhibitory Effect on Phosphorylation of PDGF Receptor
The test was carried out according to the method described in the literature [Dah-Shuhn et al., J. Biol. Chem., 266, 413-418 (1991)], using Chinese hamster ovary cells (CHO) wherein human β-PDGF receptor cDNA was introduced and expressed.

T1 sequence (P09619 33-1106): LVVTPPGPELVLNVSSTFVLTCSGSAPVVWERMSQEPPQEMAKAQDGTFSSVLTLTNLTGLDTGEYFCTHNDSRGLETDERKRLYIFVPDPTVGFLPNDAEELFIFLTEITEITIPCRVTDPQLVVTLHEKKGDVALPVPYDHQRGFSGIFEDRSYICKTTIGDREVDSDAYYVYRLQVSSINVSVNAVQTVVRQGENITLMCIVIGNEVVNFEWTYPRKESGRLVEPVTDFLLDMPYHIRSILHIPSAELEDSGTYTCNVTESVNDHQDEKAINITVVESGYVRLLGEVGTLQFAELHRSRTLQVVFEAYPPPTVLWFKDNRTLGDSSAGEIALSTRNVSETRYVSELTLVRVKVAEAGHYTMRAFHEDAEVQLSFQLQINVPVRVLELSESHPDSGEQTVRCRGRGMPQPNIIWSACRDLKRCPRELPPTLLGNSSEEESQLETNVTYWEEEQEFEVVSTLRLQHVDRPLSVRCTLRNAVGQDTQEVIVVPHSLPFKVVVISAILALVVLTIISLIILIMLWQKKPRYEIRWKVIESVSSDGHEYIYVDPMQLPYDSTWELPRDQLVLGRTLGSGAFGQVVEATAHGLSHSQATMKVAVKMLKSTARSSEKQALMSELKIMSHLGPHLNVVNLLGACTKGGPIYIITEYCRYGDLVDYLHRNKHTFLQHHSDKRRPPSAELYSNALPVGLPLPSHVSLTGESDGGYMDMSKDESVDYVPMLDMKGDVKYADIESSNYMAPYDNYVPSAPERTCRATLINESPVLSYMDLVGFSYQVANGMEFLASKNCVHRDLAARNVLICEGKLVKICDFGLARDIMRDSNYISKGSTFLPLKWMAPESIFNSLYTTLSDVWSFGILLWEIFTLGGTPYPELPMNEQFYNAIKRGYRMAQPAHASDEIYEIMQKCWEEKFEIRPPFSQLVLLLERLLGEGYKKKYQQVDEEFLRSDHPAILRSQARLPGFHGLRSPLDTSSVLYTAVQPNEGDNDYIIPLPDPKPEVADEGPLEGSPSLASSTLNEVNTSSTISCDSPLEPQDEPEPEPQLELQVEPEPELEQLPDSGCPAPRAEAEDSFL

IC50 (human β-PDGF receptor) | melting point | Structure (SMILES)
0.76 µM | 244 to 246 °C | Cc1ccc2ncnc(N3CCN(C(=O)Nc4ccc(Oc5ccccc5)cc4)CC3)c2c1 [Compound 292, 4-(6-Methyl-4-quinazolinyl)-N-(4-phenoxyphenyl)-1-piperazinecarboxamide]
0.31 µM | 244 to 246 °C | COc1cc2ncnc(N3CCN(C(=O)Nc4ccc(N=Nc5ccccc5)cc4)CC3)c2cc1OC [Compound 229, 4-(6,7-Dimethoxy-4-quinazolinyl)-N-(4-phenylazophenyl)-1-piperazinecarboxamide]
0.26 µM | 184 to 185 °C | Cc1ccc2c(N3CCN(C(=O)Nc4ccc(Oc5ccccc5)cc4)CC3)ncnc2c1 [Compound 312, 4-(7-Methyl-4-quinazolinyl)-N-(4-phenoxyphenyl)-1-piperazinecarboxamide]
0.5 µM | 186 to 187 °C | COc1cc2ncnc(N3CCN(C(=S)NCc4ccc(C#N)cc4)CC3)c2cc1OC [Compound 240, N-(4-Cyanobenzyl)-4-(6,7-dimethoxy-4-quinazolinyl)-1-piperazinethiocarboxamide]
0.67 µM | 207 to 210 °C | COc1cc2ncnc(N3CCN(C(=S)Nc4ccc5c(c4)CCC5)CC3)c2cc1OC [Compound 9, 4-(6,7-Dimethoxy-4-quinazolinyl)-N-(5-indanyl)-1-piperazinethiocarboxamide]
0.71 µM | 221 to 222 °C | COc1cc2ncnc(N3CCN(C(=O)Nc4ccc(Cl)c(Cl)c4)CC3)c2cc1OC [Compound 54, N-(3,4-Dichlorophenyl)-4-(6,7-dimethoxy-4-quinazolinyl)-1-piperazinecarboxamide]
0.22 µM | 104 to 106 °C | COc1cc2ncnc(N3CCN(C(=S)NCc4cccnc4)CC3)c2cc1OC [Compound 98, 4-(6,7-Dimethoxy-4-quinazolinyl)-N-(3-picolyl)-1-piperazinethiocarboxamide]
1.4 µM | 252 to 254 °C | COc1cc2ncnc(N3CCN(C(=O)Nc4ccc(-n5cccc5)nc4)CC3)c2cc1OC [Compound 283, 4-(6,7-Dimethoxy-4-quinazolinyl)-N-[2-(1-pyrrolyl)-5-pyridyl]-1-piperazinecarboxamide]
0.44 µM | 120 to 121 °C | CCOc1cc2ncnc(N3CCN(C(=O)Nc4ccc([N+](=O)[O-])cc4)CC3)c2cc1OCC [Compound 105, 4-(6,7-Diethoxy-4-quinazolinyl)-N-(4-nitrophenyl)-1-piperazinecarboxamide]
0.19 µM | 190 to 191 °C | O=C(Nc1ccc(Oc2ccccc2)cc1)N1CCN(c2ncnc3cc(Cl)c([N+](=O)[O-])cc23)CC1 [Compound 357, 4-(7-Chloro-6-nitro-4-quinazolinyl)-N-(4-phenoxyphenyl)-1-piperazinecarboxamide]
0.77 µM | 117 to 119 °C | COc1cc2ncnc(N3CCN(C(=S)NCc4cccc(Cl)c4)CC3)c2cc1OC [Compound 177, N-(3-Chlorobenzyl)-4-(6,7-dimethoxy-4-quinazolinyl)-1-piperazinethiocarboxamide]
1 µM | 106 to 109 °C | COc1cc2ncnc(N3CCN(C(=S)NCCc4ccc(Cl)cc4)CC3)c2cc1OC [Compound 180, N-[2-(4-Chlorophenyl)ethyl]-4-(6,7-dimethoxy-4-quinazolinyl)-1-piperazinethiocarboxamide]
0.66 µM | 213 to 215 °C | COc1cc2ncnc(N3CCN(C(=O)Nc4ccoc4)CC3)c2cc1OC [Compound 255, 4-(6,7-Dimethoxy-4-quinazolinyl)-N-(3-furyl)-1-piperazinecarboxamide]
0.46 µM | 149 to 150 °C | COc1cc2ncnc(N3CCN(C(=S)Nc4ccc(S(=O)(=O)N5CCCCC5)cc4)CC3)c2cc1OC [Compound 254, 4-(6,7-Dimethoxy-4-quinazolinyl)-N-(4-piperidinosulfonylphenyl)-1-piperazinethiocarboxamide]
0.4 µM | 192 to 193 °C | COc1cc2ncnc(N3CCN(C(=S)Nc4cccc(C(C)=O)c4)CC3)c2cc1OC [Compound 241, N-(3-Acetylphenyl)-4-(6,7-dimethoxy-4-quinazolinyl)-1-piperazinethiocarboxamide]
0.46 µM | 147 to 148 °C | COc1cc2ncnc(N3CCN(C(=S)NCCCc4ccccc4)CC3)c2cc1OC [Compound 135, 4-(6,7-Dimethoxy-4-quinazolinyl)-N-(3-phenylpropyl)-1-piperazinethiocarboxamide]
0.41 µM | 203 to 204 °C | COc1cc2ncnc(N3CCN(C(=O)NCc4ccc(Cl)cc4)CC3)c2cc1OC [Compound 178, N-(4-Chlorobenzyl)-4-(6,7-dimethoxy-4-quinazolinyl)-1-piperazinecarboxamide]
0.94 µM | 226 to 227 °C | COc1cc2ncnc(N3CCN(C(=S)Nc4ccc(N(C)C)cc4)CC3)c2cc1OC [Compound 71, 4-(6,7-Dimethoxy-4-quinazolinyl)-N-(4-dimethylaminophenyl)-1-piperazinethiocarboxamide]
0.33 µM | 186 to 187 °C | O=C(Nc1ccc(Oc2ccccc2)cc1)N1CCN(c2ncnc3ccc(F)cc23)CC1 [Compound 297, 4-(6-Fluoro-4-quinazolinyl)-N-(4-phenoxyphenyl)-1-piperazinecarboxamide]
0.38 µM | 165 to 166 °C | COc1cc2ncnc(N3C[C@@H](C)N(C(=S)NCc4ccccc4)[C@@H](C)C3)c2cc1OC [Compound 433, N-Benzyl-4-(6,7-dimethoxy-4-quinazolinyl)-(cis-2,6-dimethyl)-1-piperazinethiocarboxamide]
1.39 µM | 176 to 177 °C | COc1cc2ncnc(N3CCN(C(=O)NCc4ccc(OC(F)(F)F)cc4)CC3)c2cc1OC [Compound 203, 4-(6,7-Dimethoxy-4-quinazolinyl)-N-(4-trifluoromethoxybenzyl)-1-piperazinecarboxamide]
1.47 µM | 107 to 110 °C | S=C(NCc1cccnc1)N1CCN(c2ncnc3cc4ccccc4cc23)CC1 [Compound 366, 4-(4-Benzo[g]quinazolinyl)-N-(3-picolyl)-1-piperazinethiocarboxamide]
 | 226 to 228 °C | COC(=O)c1sccc1NC(=S)N1CCN(c2ncnc3cc(OC)c(OC)cc23)CC1 [Compound 260, 4-(6,7-Dimethoxy-4-quinazolinyl)-N-(2-methoxycarbonyl-3-thienyl)-1-piperazinethiocarboxamide]
 | 221 to 222 °C | COc1cc2ncnc(N3CCN(C(=O)Nc4cccc(Br)c4)CC3)c2cc1OC [Compound 44, N-(3-Bromophenyl)-4-(6,7-dimethoxy-4-quinazolinyl)-1-piperazinecarboxamide]
 | 272 to 275 °C | O=C(Nc1ccc([N+](=O)[O-])cc1)N1CCN(c2ncnc3cc4ccccc4cc23)CC1 [Compound 364, 4-(4-Benzo[g]quinazolinyl)-N-(4-nitrophenyl)-1-piperazinecarboxamide]

Structure (SMILES) | IC50 (human β-PDGF receptor) | melting point
COc1cc2ncnc(N3CCN(C(=S)Nc4ccc(CNC(=O)OC(C)(C)C)cc4)CC3)c2cc1OC [Compound 228, N-[4-(N-tert-Butoxycarbonylaminomethyl)phenyl]-4-(6,7-dimethoxy-4-quinazolinyl)-1-piperazinethiocarboxamide] | 0.29 µM | 123 to 126 °C
